This is an account of results in patent US20260297042A1, “BIARYLAMIDE DERIVATIVES AND THEIR USE AS PKMYT1 INHIBITORS” (CANCER RESEARCH TECHNOLOGY LIMITED, priority 2023, published 2026).

The target of test [1] is T1, Human PKMYT1 (Homo sapiens, UniProt Q99640).
T1 construct: Human PKMYT1 75-362 was cloned as a TEV cleavable 6xHis fusion; 6xHis (TEV cleavable) (cleaved yes); made in house; host or cells: bacterial cells
T1 sequence (Q99640 75-362): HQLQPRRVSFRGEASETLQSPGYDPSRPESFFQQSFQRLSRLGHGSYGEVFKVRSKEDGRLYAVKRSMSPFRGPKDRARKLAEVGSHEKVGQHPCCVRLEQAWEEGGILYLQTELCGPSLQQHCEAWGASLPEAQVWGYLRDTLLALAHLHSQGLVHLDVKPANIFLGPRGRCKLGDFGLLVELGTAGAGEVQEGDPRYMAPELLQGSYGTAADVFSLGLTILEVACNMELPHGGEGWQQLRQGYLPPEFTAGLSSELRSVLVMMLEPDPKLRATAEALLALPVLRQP
Briefly: PKMYT1 biochemical ADP-Glo enzymatic assay. The following applies: ADP-Glo. In outline: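 IC50 values come from 10-point 3-fold series, with replicates required within 3-fold and r2 >0.9. ADP formed by PKMYT1 intrinsic ATPase (500 uM ATP, 60 min, 26° C.) was quantified by ADP-Glo luminescence. The enzyme was the TEV-cleaved kinase domain 75-362 at 15 nM, in HEPES pH 7.5 buffer.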

For test [2], the target named is T2, WEE1 (Homo sapiens, UniProt P30291).
T2 construct: purchased Thermo Fisher PR7373A
In words: Selectivity versus WEE1 assay (ADP-Glo enzymatic assay). The test is classed as biochemical. The following applies: for IC50: ADP-Glo; for PKMYT1 vs. WEE1 selectivity: fold difference in selectivity for PKMYT1 over WEE1. In outline: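 ADP-Glo luminescent read-out after a 60-min, 26 °C kinase reaction of 15 nM WEE1 with 30 µM ATP, in HEPES pH 7.5 buffer containing MgCl2, EGTA, Brij-35 and 1% DMSO. IC50 accepted only when replicate values agree within 3-fold and curve fit r2 exceeds 0.9.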
For orientation: ADP-Glo first removes unused ATP, then detects ADP through luciferase.

Setting [3] is: PKMYT1 kinase domain 15 nM, banded values.
The mark [4] stands for this setting: 15 nM PKMYT1 kinase domain, 500 µM ATP, 60 minutes at 26° C., banded.
Setting [5] is: 15 nM WEE1, 60 minutes at 26° C., banded.
[6] abbreviates: banded, ">N" = at least in this band but could be higher.

T2 sequence (P30291 whole entry): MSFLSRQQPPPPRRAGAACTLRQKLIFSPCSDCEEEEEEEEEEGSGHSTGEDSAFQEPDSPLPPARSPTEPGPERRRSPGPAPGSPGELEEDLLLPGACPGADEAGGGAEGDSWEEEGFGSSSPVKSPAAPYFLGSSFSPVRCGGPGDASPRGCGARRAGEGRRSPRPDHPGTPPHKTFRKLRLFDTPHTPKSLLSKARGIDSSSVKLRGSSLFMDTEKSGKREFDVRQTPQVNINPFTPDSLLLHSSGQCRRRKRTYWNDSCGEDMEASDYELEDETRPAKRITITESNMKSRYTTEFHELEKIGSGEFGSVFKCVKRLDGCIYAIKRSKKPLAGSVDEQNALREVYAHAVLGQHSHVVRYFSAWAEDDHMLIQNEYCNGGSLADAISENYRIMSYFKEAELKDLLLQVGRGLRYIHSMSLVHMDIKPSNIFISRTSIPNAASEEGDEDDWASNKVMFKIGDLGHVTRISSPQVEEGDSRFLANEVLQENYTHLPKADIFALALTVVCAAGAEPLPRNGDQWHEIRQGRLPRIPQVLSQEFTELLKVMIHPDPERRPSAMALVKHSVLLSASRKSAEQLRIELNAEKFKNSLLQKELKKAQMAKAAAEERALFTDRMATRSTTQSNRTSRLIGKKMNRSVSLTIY

As for `Cc1conc1Nc1ncc(C(=O)Nc2c(C)ccc(O)c2C)s1` [BAA-440, N-(3-hydroxy-2,6-dimethylphenyl)-2-((4-methylisoxazol-3-yl)amino)thiazole-5-carboxamide], the IC50 in test [1] (setting [3]) is under 50 nM; in test [2] (WEE1 15 nM, banded values), 1000 to 11000 nM. In test [2] (banded), the “PKMYT1 vs. WEE1 selectivity” value is on record as “X (100-<1000 fold)”.

In the case of `Cc1ccc(O)c(C)c1NC(=O)c1cnc(NCCCN2CCOCC2)s1` [BAA-065, N-(3-hydroxy-2,6-dimethyl-phenyl)-2-(3-morpholinopropylamino)thiazole-5-carboxamide], the results for the IC50 in test [1] (setting [4]) and in test [2] (setting [5]) were 50 to 1000 nM and over 11000 nM, respectively. In addition, the “PKMYT1 vs. WEE1 selectivity” value in test [2] (setting [6]) was “>X (100-<1000 fold)”.

Consider `Cc1ccc(O)c(C)c1NC(=O)c1cnc(Nc2ccn([C@@H]3CCN(CCc4ccccc4)C3)n2)s1` [BAA-115], for which the results for the IC50 in test [1] (setting [4]) and in test [2] (setting [5]) were 50 to 1000 nM and over 11000 nM, respectively. Moreover, the “PKMYT1 vs. WEE1 selectivity” value in test [2] (setting [6]) is “>X (100-<1000 fold)”.

Turning to `Cc1ccc(O)c(C)c1NC(=O)c1cnc(Nc2ccc(NC(=O)CC(C)C)cn2)s1` [BAA-299, N-(3-hydroxy-2,6-dimethylphenyl)-2-((5-(3-methylbutanamido)pyridin-2-yl)amino)thiazole-5-carboxamide], the IC50 in test [1] (setting [4]) was under 50 nM; in test [2] (setting [5]), 1000 to 11000 nM. Also, the “PKMYT1 vs. WEE1 selectivity” value in test [2] (setting [6]) was “X (100-<1000 fold)”.

Consider `Cc1ccc(O)c(C)c1NC(=O)c1cnc(Nc2ccn(CC(=O)NCCCO)n2)s1` [BAA-159, N-(3-hydroxy-2,6-dimethyl-phenyl)-2-[[1-[2-(3-hydroxypropylamino)-2-oxo-ethyl]pyrazol-3-yl]amino]thiazole-5-carboxamide], for which the IC50 in test [1] (setting [4]) was under 50 nM; in test [2] (setting [5]), over 11000 nM. In addition, in test [2] (setting [6]), the “PKMYT1 vs. WEE1 selectivity” value is given as “Y (1000-5000 fold)”.

Turning to `Cc1ccc(O)c(C)c1NC(=O)c1cnc(Nc2ccn(CC(=O)N3CCC(C)(O)CC3)n2)s1` [BAA-169, N-(3-hydroxy-2,6-dimethyl-phenyl)-2-[[1-[2-(4-hydroxy-4-methyl-1-piperidyl)-2-oxo-ethyl]pyrazol-3-yl]amino]thiazole-5-carboxamide], the IC50 in test [1] (setting [4]) is under 50 nM; in test [2] (setting [5]), over 11000 nM. In addition, in test [2] (setting [6]), the “PKMYT1 vs. WEE1 selectivity” value is listed as “Y (1000-5000 fold)”.

As to `Cc1ccc(O)c(C)c1NC(=O)c1cnc(Nc2ncc(C(C)(C)C)o2)s1` [BAA-449, 2-((5-(tert-butyl)oxazol-2-yl)amino)-N-(3-hydroxy-2,6-dimethylphenyl)thiazole-5-carboxamide], the IC50 in test [1] (setting [3]) is 50 to 1000 nM; in test [2] (WEE1 15 nM, banded values), over 11000 nM. The “PKMYT1 vs. WEE1 selectivity” value in test [2] (banded) is “W (10-<100 fold)”.

Consider `Cc1ccc(O)c(C)c1NC(=O)c1cnc(Nc2ccn(C3CCN(C(=O)OC(C)(C)C)CC3)n2)s1` [BAA-031], for which the IC50 in test [1] (setting [4]) is 50 to 1000 nM; in test [2] (setting [5]) it was over 11000 nM. Further, in test [2] (setting [6]), the “PKMYT1 vs. WEE1 selectivity” value is “>X (100-<1000 fold)”.

For `CCN(C)C(=O)N1CC[C@@H](n2ccc(Nc3ncc(C(=O)Nc4c(C)ccc(O)c4C)s3)n2)C1` [BAA-111, 2-[[1-[(3R)-1-[Ethyl(methyl)carbamoyl]pyrrolidin-3-yl]pyrazol-3-yl]amino]-N-(3-hydroxy-2,6-dimethyl-phenyl)thiazole-5-carboxamide], the figures for the IC50 in test [1] (setting [4]) and in test [2] (setting [5]) were 50 to 1000 nM and over 11000 nM, respectively. Besides, in test [2] (setting [6]), the “PKMYT1 vs. WEE1 selectivity” value is on record as “>Y (1000-5000 fold)”.

As for `Cc1ccc(O)c(C)c1NC(=O)c1cnc(Nc2ccn(CC(=O)N3CCC3)n2)s1` [BAA-175, 2-[[1-[2-(azetidin-1-yl)-2-oxo-ethyl]pyrazol-3-yl]amino]-N-(3-hydroxy-2,6-dimethyl-phenyl)thiazole-5-carboxamide], the values for the IC50 in test [1] (setting [4]) and in test [2] (setting [5]) were under 50 nM and over 11000 nM, respectively. Moreover, in test [2] (setting [6]), the “PKMYT1 vs. WEE1 selectivity” value is recorded as “Y (1000-5000 fold)”.

`Cc1cn(-c2cnn(CCO)c2)nc1Nc1ncc(C(=O)Nc2c(C)ccc(O)c2C)s1` [BAA-395, N-(3-hydroxy-2,6-dimethylphenyl)-2-((1′-(2-hydroxyethyl)-4-methyl-1′H-[1,4′-bipyrazol]-3-yl)amino)thiazole-5-carboxamide]: the IC50 in test [1] (setting [3]) is under 50 nM; in test [2] (WEE1 15 nM, banded values), 1000 to 11000 nM. Further, the “PKMYT1 vs. WEE1 selectivity” value in test [2] (banded) is “X (100-<1000 fold)”.

As to `Cc1ccc(O)c(C)c1NC(=O)c1cnc(Nc2ncn(C)n2)s1` [BAA-265, N-(3-hydroxy-2,6-dimethylphenyl)-2-((1-methyl-1H-1,2,4-triazol-3-yl)amino)thiazole-5-carboxamide], the IC50 in test [1] (setting [4]) is under 50 nM; in test [2] (setting [5]), over 11000 nM. Besides, the “PKMYT1 vs. WEE1 selectivity” value in test [2] (setting [6]) was “X (100-<1000 fold)”.

Regarding `CC(=O)Nc1ccc(Nc2ncc(C(=O)Nc3c(C)ccc(O)c3C)s2)cc1` [BAA-513, 2-((4-Acetamidophenyl)amino)-N-(3-hydroxy-2,6-dimethylphenyl)thiazole-5-carboxamide], the IC50 in test [1] (setting [3]) is under 50 nM; in test [2] (WEE1 15 nM, banded values), 1000 to 11000 nM. Further, the “PKMYT1 vs. WEE1 selectivity” value in test [2] (banded) is reported as “X (100-<1000 fold)”.

On to `Cc1ccc(O)c(C)c1NC(=O)c1cnc(Nc2ncco2)s1` [BAA-027, N-(3-hydroxy-2,6-dimethyl-phenyl)-2-(oxazol-2-ylamino)thiazole-5-carboxamide], for which the IC50 in test [1] (setting [4]) was 50 to 1000 nM; in test [2] (setting [5]), over 11000 nM. Also, in test [2] (setting [6]), the “PKMYT1 vs. WEE1 selectivity” value was “X (100-<1000 fold)”.

Consider `CCCCCCCNC(=O)Cn1ccc(Nc2ncc(C(=O)Nc3c(C)ccc(O)c3C)s2)n1` [BAA-135], for which the IC50 in test [1] (setting [4]) is under 50 nM; in test [2] (setting [5]) it was 1000 to 11000 nM. In addition, the “PKMYT1 vs. WEE1 selectivity” value in test [2] (setting [6]) was “X (100-<1000 fold)”.

As for `Cc1ccc(O)c(C)c1NC(=O)c1cnc(NCCNC(=O)OC(C)(C)C)s1` [BAA-068, tert-butyl N-[2-[5-[(3-hydroxy-2,6-dimethyl-phenyl)carbamoyl]thiazol-2-yllamino]ethyl]carbamate], the figures for the IC50 in test [1] (setting [4]) and in test [2] (setting [5]) were 50 to 1000 nM and over 11000 nM, respectively. Moreover, in test [2] (setting [6]), the “PKMYT1 vs. WEE1 selectivity” value was “>X (100-<1000 fold)”.

For the compound `COCc1cc(Nc2ncc(C(=O)Nc3c(C)ccc(O)c3C)s2)nn1C` [BAA-252, N-(3-hydroxy-2,6-dimethylphenyl)-2-((5-(methoxymethyl)-1-methyl-1H-pyrazol-3-yl)amino)thiazole-5-carboxamide], the IC50 in test [1] (setting [4]) lay within 50 to 1000 nM; in test [2] (setting [5]), 1000 to 11000 nM. The “PKMYT1 vs. WEE1 selectivity” value in test [2] (setting [6]) is reported as “X (100-<1000 fold)”.

For `Cc1ccc(O)c(C)c1NC(=O)c1cnc(Nc2ccn([C@@H]3CCN(C(=O)Cc4ccc(N)cc4)C3)n2)s1` [BAA-106, 2-[[1-[(3R)-1-[2-(4-Aminophenyl)acetyl]pyrrolidin-3-yl]pyrazol-3-yl]amino]-N-(3-hydroxy-2,6-dimethyl-phenyl)thiazole-5-carboxamide], the values for the IC50 in test [1] (setting [4]) and in test [2] (setting [5]) were under 50 nM and over 11000 nM, respectively. Besides, the “PKMYT1 vs. WEE1 selectivity” value in test [2] (setting [6]) was “>Y (1000-5000 fold)”.

Turning to `Cc1ccc(O)c(C)c1NC(=O)c1cnc(Nc2ccn(CC(=O)NCCN3CCNCC3)n2)s1` [BAA-228, N-(3-hydroxy-2,6-dimethylphenyl)-2-((1-(2-oxo-2-((2-(piperazin-1-yl)ethyl)amino)ethyl)-1H-pyrazol-3-yl)amino)thiazole-5-carboxamide], the IC50 in test [1] (setting [4]) is under 50 nM; in test [2] (setting [5]), over 11000 nM. The “PKMYT1 vs. WEE1 selectivity” value in test [2] (setting [6]) was “X (100-<1000 fold)”.

As for `Cc1ccc(O)c(C)c1NC(=O)c1cnc(Nc2ccn(CCO)n2)s1` [BAA-011], the results for the IC50 in test [1] (setting [4]) and in test [2] (setting [5]) were under 50 nM and 1000 to 11000 nM, respectively. The “PKMYT1 vs. WEE1 selectivity” value in test [2] (setting [6]) is “W (10-<100 fold)”.

In the case of `Cc1ccc(O)c(C)c1NC(=O)c1cnc(Nc2ccn(C3COC3)n2)s1` [BAA-007, N-(3-hydroxy-2,6-dimethyl-phenyl)-2-[[1-(oxetan-3-yl)pyrazol-3-yl]amino]thiazole-5-carboxamide], the IC50 in test [1] (setting [4]) was under 50 nM; in test [2] (setting [5]), 50 to 1000 nM. Besides, in test [2] (setting [6]), the “PKMYT1 vs. WEE1 selectivity” value is recorded as “W (10-<100 fold)”.

As for `Cc1ccc(O)c(C)c1NC(=O)c1cnc(NCC2CCN(C(=O)Cc3ccc(Cl)cc3)CC2)s1` [BAA-214, 2-[[1-[2-(4-chlorophenyl)acetyl]-4-piperidyl]methylamino]-N-(3-hydroxy-2,6-dimethyl-phenyl)thiazole-5-carboxamide], the IC50 in test [1] (setting [4]) was 50 to 1000 nM; in test [2] (setting [5]), over 11000 nM. Also, in test [2] (setting [6]), the “PKMYT1 vs. WEE1 selectivity” value is “>X (100-<1000 fold)”.

Take `Cc1c(O)ccc(Cl)c1NC(=O)c1cnc(Nc2ccn(C)n2)s1` [BAA-474, N-(6-Chloro-3-hydroxy-2-methyl-phenyl)-2-[(1-methylpyrazol-3-yl)amino]thiazole-5-carboxamide]: the IC50 in test [1] (setting [3]) is 50 to 1000 nM; in test [2] (WEE1 15 nM, banded values), over 11000 nM. Also, the “PKMYT1 vs. WEE1 selectivity” value in test [2] (banded) was “X (100-<1000 fold)”.

As for `COc1ccccc1CNc1ncc(C(=O)Nc2c(C)ccc(O)c2C)s1` [BAA-355, N-(3-hydroxy-2,6-dimethylphenyl)-2-((2-methoxybenzyl)amino) thiazole-5-carboxamide], the results for the IC50 in test [1] (setting [4]) and in test [2] (setting [5]) were 50 to 1000 nM and over 11000 nM, respectively. In addition, the “PKMYT1 vs. WEE1 selectivity” value in test [2] (setting [6]) is “X (100-<1000 fold)”.

Broadly, the IC50 is the point on the concentration scale where inhibition reaches its midpoint. The low end stands for inhibition by little substance, the high end for a need for much substance.
